In patent US20210076698A1, “METHODS OF MAINTAINING OR INCREASING GROWTH OR COGNITIVE DEVELOPMENT” (FONTERRA CO-OPERATIVE GROUP LIMITED, priority 2007, published 2021):

Experiments:
[1] = rats (Hungund et al, 1993); cited from earlier work
cholera toxin = cholera toxin (Vibrio cholerae serotype O1, UniProt P01556); conditions: cited from earlier work
human placenta = test: Placental transfer trial, dual perfused human placental lobules (Example 3); format: in vitro ADME
From the text: Dual perfused human lobules were taken from six placentae of uncomplicated term pregnancies (normal elective Caesarean patients). Maternal and fetal arterial and venous supplies were isolated, catheterised and the placenta maintained by perfusion of sterile krebs buffer (that also contains serum albumin to aid transport of lipophilic substances) at room temperature in a sterile air perfusion chamber at constant flow rate and pressure. The perfusion technique used was modified from Glance et al (1984) according to Collier et al (2004).
Equilibration was performed for 60 min to assess physical integrity of tissue and circuits (fetal arterial pressure <40 mmHg and leakage of perfusate from fetal to maternal circuit <2 ml/h) then the maternal and fetal reservoirs replaced with fresh media containing doses of test substances. Time zero and then hourly samples are collected from all circuits and stored frozen for analysis. Metabolic viability of the preparation is assessed with samples collected hourly from maternal and fetal arteries and analysed for oxygen and carbon dioxide saturation, electrolytes and glucose consumption (Bayer 865 Blood Gas Analyzer, Bayer Diagnostics and lactate production (Hitachi 917, Roche Diagnostics). 10 μg/mL of milk-derived ganglioside mixture (GM3+GD3—isolated from G600™ precursor described above) was added to the maternal reservoir. Perfusion was conducted for up to 3 hours using a closed loop system. Samples were taken from both reservoirs at that point (t=0) and at regular time-points, snap frozen in liquid nitrogen, and subsequently assayed for GM3, GD3, and lobule viability.
GM3 and GD3 contents of the perfusates were measured by LC-MS using a Hypersil APS2 column, normal phase acetonitrile gradient and detected in the LTQ orbitrap in negative ion full scan, as described below. Perfusate samples were “protein crashed” by addition into methanol, allowed to stand for 60 min at 4° C. before centrifugation (20,000×g). An aliquot (10-50 μL) was loaded onto an online C18 trap, washed (50% MeOH), before eluted onto a Hypersil APS2 column (Thermo Finnigan, MA, USA). Gangliosides were separated on a normal phase gradient, and detected in the LTQ Orbitrap Mass spectrometer (ThermoFinnigan, Ma, USA) in negative ion mode. The LC-MS system was calibrated using GD3 and GM3 standards purchased from Matreya (Pa, USA). Lobule viability was assessed by Glucose uptake and lactate production, measured with an Autoanalyzer.

neuronal out growth = conditions: cited from earlier work
[2] = 10 μg/mL GM3+GD3 mixture in maternal reservoir, perfusion up to 3 hours

Chain of cholera toxin (P01556 22-124 limits assumed): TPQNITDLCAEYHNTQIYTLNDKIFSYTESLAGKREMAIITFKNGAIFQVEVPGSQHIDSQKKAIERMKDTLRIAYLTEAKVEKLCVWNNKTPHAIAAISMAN

Ganglioside GM1a
crossing of the placenta [1]: cross the placenta

ganglioside GM1
binding of cholera toxin (cholera toxin): specific

GD3
concentrations in foetal perfusate (human placenta; LC-MS): below assay sensitivity | reduction in maternal concentrations (human placenta; average, all cases): 25-30% | effect on neuronal out growth (neuronal out growth): does not

GD1a
binding of cholera toxin (cholera toxin): negligible binding

GM3
increase of foetal perfusate concentration over time (human placenta; [2]): approximately 6 fold | transfer across the human placenta (human placenta; [2]): evidence of transfer | reduction of maternal perfusate concentration (human placenta; on average, from the starting maternal concentration): half | maternal perfusate concentration before reduction (human placenta; starting level in maternal perfusate): approximately 300 ng/ml

9-O-acetyl GD3 [reference compound]
effect on neuronal out growth (neuronal out growth): promotes

GM2
binding of cholera toxin (cholera toxin): negligible binding
